Like-named read-outs stand apart in the source and are kept apart here.
Key:
Format in all cases: binding
[1] = target: T1, HeLa cell extract proteins (Homo sapiens, UniProt Q9ULX6)
T1 construct: endogenous in cells; host or cells: HeLa cell extract
T1 sequence (Q9ULX6 1-646): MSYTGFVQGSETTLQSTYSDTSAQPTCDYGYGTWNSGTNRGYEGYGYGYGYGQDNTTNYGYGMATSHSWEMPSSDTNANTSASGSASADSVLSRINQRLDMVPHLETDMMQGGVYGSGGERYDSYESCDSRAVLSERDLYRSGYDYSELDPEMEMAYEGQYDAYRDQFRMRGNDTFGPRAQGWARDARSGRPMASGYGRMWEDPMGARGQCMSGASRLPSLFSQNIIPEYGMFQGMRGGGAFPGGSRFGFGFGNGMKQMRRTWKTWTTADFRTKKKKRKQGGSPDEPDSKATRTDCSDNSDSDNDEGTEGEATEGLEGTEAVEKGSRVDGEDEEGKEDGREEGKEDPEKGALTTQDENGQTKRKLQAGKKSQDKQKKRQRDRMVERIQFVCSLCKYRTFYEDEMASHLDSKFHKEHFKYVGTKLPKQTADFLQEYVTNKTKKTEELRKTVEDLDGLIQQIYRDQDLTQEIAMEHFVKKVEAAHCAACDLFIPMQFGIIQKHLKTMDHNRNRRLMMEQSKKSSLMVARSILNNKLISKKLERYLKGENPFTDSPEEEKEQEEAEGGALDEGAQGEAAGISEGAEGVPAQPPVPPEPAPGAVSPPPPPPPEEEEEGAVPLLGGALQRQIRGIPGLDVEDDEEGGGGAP

[2] = target: T2, HeLa cell extract proteins (Homo sapiens, UniProt P61769)
T2 construct: endogenous in cells; host or cells: HeLa cell extract
T2 sequence (P61769 21-119): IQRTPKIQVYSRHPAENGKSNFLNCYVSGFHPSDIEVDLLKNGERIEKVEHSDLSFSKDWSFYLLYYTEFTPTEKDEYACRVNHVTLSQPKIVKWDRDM

[3] = target: T3, HeLa cell extract proteins (Homo sapiens, UniProt Q01518)
T3 construct: endogenous in cells; host or cells: HeLa cell extract
T3 sequence (Q01518 whole entry): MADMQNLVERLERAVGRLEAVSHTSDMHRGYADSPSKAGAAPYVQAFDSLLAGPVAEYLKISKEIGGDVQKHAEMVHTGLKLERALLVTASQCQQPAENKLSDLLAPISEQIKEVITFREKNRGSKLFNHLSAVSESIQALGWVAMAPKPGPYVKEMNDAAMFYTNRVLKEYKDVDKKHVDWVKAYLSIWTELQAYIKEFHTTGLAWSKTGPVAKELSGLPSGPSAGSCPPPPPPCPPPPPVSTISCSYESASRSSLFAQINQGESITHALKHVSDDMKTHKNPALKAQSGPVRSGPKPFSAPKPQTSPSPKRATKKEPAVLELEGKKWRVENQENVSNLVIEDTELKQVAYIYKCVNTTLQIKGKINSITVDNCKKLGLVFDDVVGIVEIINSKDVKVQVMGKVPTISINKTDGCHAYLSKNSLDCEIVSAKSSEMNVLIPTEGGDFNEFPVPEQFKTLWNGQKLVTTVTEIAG

[4] = target: T4, HeLa cell extract proteins (Homo sapiens, UniProt P52209)
T4 construct: endogenous in cells; host or cells: HeLa cell extract
T4 sequence (P52209 1-483): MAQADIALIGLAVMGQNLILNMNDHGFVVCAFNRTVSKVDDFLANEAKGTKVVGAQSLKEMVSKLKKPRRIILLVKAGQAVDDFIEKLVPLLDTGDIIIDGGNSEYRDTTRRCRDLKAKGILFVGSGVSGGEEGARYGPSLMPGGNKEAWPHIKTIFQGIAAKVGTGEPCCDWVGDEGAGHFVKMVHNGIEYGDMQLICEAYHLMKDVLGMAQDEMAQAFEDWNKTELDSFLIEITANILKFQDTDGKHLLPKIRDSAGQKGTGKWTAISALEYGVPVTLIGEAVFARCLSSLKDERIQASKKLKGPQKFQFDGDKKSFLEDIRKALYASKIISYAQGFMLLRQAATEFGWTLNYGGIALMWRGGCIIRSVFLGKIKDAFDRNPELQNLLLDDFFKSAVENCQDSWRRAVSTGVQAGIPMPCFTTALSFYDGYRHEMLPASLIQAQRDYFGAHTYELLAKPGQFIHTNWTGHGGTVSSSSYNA

[5] = target: T5, HeLa cell extract proteins (Homo sapiens, UniProt O75694)
T5 construct: endogenous in cells; host or cells: HeLa cell extract
T5 sequence (O75694 1-1391): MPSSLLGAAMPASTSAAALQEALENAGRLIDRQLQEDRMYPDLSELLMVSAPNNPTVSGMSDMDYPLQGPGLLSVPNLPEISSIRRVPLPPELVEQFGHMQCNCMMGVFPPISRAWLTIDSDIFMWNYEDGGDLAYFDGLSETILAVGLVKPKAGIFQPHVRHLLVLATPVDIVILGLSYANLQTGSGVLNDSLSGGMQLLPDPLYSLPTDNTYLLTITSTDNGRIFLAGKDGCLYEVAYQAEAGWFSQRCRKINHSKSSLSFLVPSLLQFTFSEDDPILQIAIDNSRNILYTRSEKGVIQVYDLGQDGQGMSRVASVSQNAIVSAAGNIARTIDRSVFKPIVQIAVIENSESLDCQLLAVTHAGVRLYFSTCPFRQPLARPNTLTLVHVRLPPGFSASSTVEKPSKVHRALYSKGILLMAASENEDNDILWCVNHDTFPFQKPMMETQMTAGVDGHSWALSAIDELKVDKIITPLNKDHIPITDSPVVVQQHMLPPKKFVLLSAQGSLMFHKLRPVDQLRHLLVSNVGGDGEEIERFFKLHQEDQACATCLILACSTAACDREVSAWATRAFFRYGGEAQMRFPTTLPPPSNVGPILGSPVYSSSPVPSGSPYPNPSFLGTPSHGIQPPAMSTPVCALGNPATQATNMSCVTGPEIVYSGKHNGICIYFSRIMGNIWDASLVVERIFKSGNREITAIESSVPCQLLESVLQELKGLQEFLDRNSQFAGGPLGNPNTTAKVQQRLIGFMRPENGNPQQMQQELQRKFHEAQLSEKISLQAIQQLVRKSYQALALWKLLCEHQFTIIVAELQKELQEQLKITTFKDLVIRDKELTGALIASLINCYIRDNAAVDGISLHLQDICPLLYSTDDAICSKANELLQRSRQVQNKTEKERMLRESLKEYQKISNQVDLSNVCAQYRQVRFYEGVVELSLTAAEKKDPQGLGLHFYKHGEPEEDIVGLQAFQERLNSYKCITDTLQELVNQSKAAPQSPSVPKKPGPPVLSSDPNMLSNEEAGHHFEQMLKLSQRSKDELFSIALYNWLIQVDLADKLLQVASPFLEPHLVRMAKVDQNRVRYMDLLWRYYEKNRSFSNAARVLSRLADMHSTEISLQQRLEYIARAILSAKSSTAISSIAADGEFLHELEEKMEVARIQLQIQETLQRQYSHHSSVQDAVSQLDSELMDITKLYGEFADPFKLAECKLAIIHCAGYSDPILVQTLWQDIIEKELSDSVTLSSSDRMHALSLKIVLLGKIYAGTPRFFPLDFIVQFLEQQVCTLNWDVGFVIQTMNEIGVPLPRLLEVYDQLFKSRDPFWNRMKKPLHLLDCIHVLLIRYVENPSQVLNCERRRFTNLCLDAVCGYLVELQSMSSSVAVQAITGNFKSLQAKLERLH

[6] = target: T6, HeLa cell extract proteins (Homo sapiens, UniProt P24863)
T6 construct: endogenous in cells; host or cells: HeLa cell extract
T6 sequence (P24863 1-283): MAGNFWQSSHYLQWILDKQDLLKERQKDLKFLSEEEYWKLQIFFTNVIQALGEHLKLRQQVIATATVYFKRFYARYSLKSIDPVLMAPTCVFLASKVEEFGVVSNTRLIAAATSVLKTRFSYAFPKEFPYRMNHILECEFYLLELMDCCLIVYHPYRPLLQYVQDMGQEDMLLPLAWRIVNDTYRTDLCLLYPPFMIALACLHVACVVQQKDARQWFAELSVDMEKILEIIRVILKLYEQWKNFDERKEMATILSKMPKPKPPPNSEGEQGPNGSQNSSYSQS

[7] = HeLa, protein B2M (CDNA FLJ57067, HIGHLY SIMILAR TO BETA-2-MICROGLOBULIN)
[8] = HeLa, protein PGD (56 KDA PROTEIN.)

| SMILES | fold changes relative to vehicle control ([1]; HeLa, protein AKAP8L) | fold changes relative to vehicle control [2, 7] | fold changes relative to vehicle control ([3]; HeLa, protein CAP1) | fold changes relative to vehicle control ([4]; protein PGD, HeLa) | fold changes relative to vehicle control ([5]; HeLa, protein NUP155) | fold changes relative to vehicle control ([6]; HeLa, protein CCNC) | fold changes relative to vehicle control [1] | fold changes relative to vehicle control [2] | fold changes relative to vehicle control [3] | fold changes relative to vehicle control [4] | fold changes relative to vehicle control [5] | fold changes relative to vehicle control [6] | fold changes relative to vehicle control ([1]; captured protein AKAP8L, HeLa) | fold changes relative to vehicle control ([2]; protein B2M, HeLa) | fold changes relative to vehicle control ([3]; protein CAP1, HeLa) | fold changes relative to vehicle control [4, 8] [fold] | fold changes relative to vehicle control ([6]; captured protein CCNC, HeLa) |
| --- | --- | --- | --- | --- | --- | --- | --- | --- | --- | --- | --- | --- | --- | --- | --- | --- | --- |
| Nc1nc2c(c(=O)[nH]1)N(C=O)C(CNc1ccc(C(=O)N[C@@H](CCC(=O)O)C(=O)O)cc1)CN2 (stereo partly drawn) [LEU, leucovorin] | 1.01 | 1.24 | 1 | 0.97 | 0.87 | 1.13 | – | – | – | – | – | – | – | – | – | – | – |
| Nc1nc2[nH]cc(CCc3ccc(C(=O)N[C@@H](CCC(=O)O)C(=O)O)cc3)c2c(=O)[nH]1 [PTX, pemetrexed] | – | – | – | – | – | – | 0.95 | 1.51 | 1.12 | 1.17 | 0.92 | 0.83 | – | – | – | – | – |
| CCCCCCOc1ccc(Cc2cnc(N)nc2N)cc1 [compound 1] | – | – | – | – | 1.04 | – | – | – | – | – | – | – | 0.79 | 1.14 | 1.19 | 1.44 | 0.89 |
| CCCCCCOc1cccc(Cc2cnc(N)nc2N)c1 [compound 2] | – | – | – | – | 1.01 | – | – | – | – | – | – | – | 1.03 | 1.16 | 2.26 | 2.49 | 0.9 |
| Nc1nc2cccc(-c3ccccc3)c2n1Cc1ccc(Cl)c(Cl)c1 [compound 3] | – | – | – | – | 1.2 | – | – | – | – | – | – | – | 0.92 | 1.07 | 0.73 | 0.86 | 0.93 |
| NCCOCCOCC(=O)Nc1nc2ncc(CNc3ccc(C(=O)NC(CCC(=O)O)C(=O)O)cc3)nc2c(=O)[nH]1 (stereo not drawn) [compound 6] | 1.01 | 1.37 | 1.26 | 1.35 | 0.92 | 0.94 | – | – | – | – | – | – | – | – | – | – | – |
| NCCCNc1ccc(C(=O)NC(CCC(=O)O)C(=O)O)cc1 (stereo not drawn) [compound 7] | 1.08 | 1.31 | 0.94 | 0.86 | 1.03 | 0.95 | – | – | – | – | – | – | – | – | – | – | – |

Reference: paper PMC6199744, “Development of Chemical Proteomics for the Folateome and Analysis of the Kinetoplastid Folateome” (ACS Infectious Diseases, 2018)
